Assay results published in patent US8394952B2 (Vertex Pharmaceuticals Incorporated, priority 2006, dated 2013).

Biological target: Plk1 (Homo sapiens, UniProt P53350)
Assay: biochemical

Plk1, sequence (P53350 20-338): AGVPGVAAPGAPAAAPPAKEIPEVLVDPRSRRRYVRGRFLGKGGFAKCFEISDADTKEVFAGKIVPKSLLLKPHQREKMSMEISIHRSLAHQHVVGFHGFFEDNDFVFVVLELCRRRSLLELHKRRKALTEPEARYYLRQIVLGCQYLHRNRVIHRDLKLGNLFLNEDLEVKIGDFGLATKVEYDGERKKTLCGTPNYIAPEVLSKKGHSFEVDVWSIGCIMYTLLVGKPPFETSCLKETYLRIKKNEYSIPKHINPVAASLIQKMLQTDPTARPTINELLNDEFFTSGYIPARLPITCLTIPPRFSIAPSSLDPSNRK

| Ki | SMILES |
| --- | --- |
| 0.01 to 0.1 µM | CN1C(=O)C(C)(C)CN(C2CCCC2)c2nc(Nc3ccc(N4CCOCC4)cc3)ncc21 [Compound I-63, 2-(4-morpholinophenylamino)-9-cyclopentyl-8,9-dihydro-5,7,7-trimethyl-5H-pyrimido[4,5-b][1,4]diazepin-6(7H)-one] |
| < 0.01 µM | COc1cc(C(=O)NC2CCCC2)ccc1Nc1ncc2c(n1)N(C1CCCC1)C[C@H](C)C(=O)N2C [Compound I-173, 4-((S)-9-cyclopentyl-6,7,8,9-tetrahydro-5,7-dimethyl-6-oxo-5H-pyrimido[4,5-b][1,4]diazepin-2-ylamino)-N-cyclopentyl-3-methoxybenzamide] |
| 0.01 to 0.1 µM | CN1C(=O)C(C)(C)CN(C2CCCC2)c2nc(Nc3ccc4nc[nH]c4c3)ncc21 [Compound I-43, 2-(1H-benzo[d]imidazol-6-ylamino)-9-cyclopentyl-8,9-dihydro-5,7,7-trimethyl-5H-pyrimido[4,5-b][1,4]diazepin-6(7H)-one] |
| < 0.01 µM | CNC(=O)c1ccc(Nc2ncc3c(n2)N([C@@H]2CCOC2)CC(C)(C)C(=O)N3C)c(OC)c1 [Compound I-181, 4-(6,7,8,9-tetrahydro-9-((R)-tetrahydrofuran-3-yl)-5,7,7-trimethyl-6-oxo-5H-pyrimido[4,5-b][1,4]diazepin-2-ylamino)-3-methoxy-N-methylbenzamide] |
| < 0.01 µM | COc1ccc(NC(=O)c2ccc(Nc3ncc4c(n3)N(C3CCCC3)CC(C)(C)C(=O)N4C)c(OC)c2)cc1 [Compound I-261, 4-(9-cyclopentyl-5,7,7-trimethyl-6-oxo-6,7,8,9-tetrahydro-5H-pyrimido[4,5-b][1,4]diazepin-2-ylamino)-3-methoxy-N-(4-methoxyphenyl)benzamide] |
| < 0.01 µM | CCOc1cc(C(=O)NC2CCN(C(C)C)CC2)ccc1Nc1ncc2c(n1)N(C1CCCC1)CC(C)(C)C(=O)N2C [Compound I-135, 4-(9-cyclopentyl-6,7,8,9-tetrahydro-5,7,7-trimethyl-6-oxo-5H-pyrimido[4,5-b][1,4]diazepin-2-ylamino)-3-ethoxy-N-(1-isopropylpiperidin-4-yl)benzamide] |
| < 0.01 µM | CNC(=O)c1ccc(Nc2ncc3c(n2)N(C2CCCC2)CC(C)(C)c2nncn2-3)c(OC)c1 [Compound I-36, 4-(6-Cyclopentyl-4,4-dimethyl-5,6-dihydro-4H-2,3,6,7,9,10b-hexaazabenzo[e]azulen-8-ylamino)-3-methoxy-N-methylbenzamide] |
| < 0.01 µM | COc1cc(C(=O)Nc2cc(C)[nH]n2)ccc1Nc1ncc2c(n1)N(C1CCCC1)CC(C)(C)C(=O)N2C [Compound I-231, 4-(9-cyclopentyl-5,7,7-trimethyl-6-oxo-6,7,8,9-tetrahydro-5H-pyrimido[4,5-b][1,4]diazepin-2-ylamino)-3-methoxy-N-(5-methyl-1H-pyrazol-3-yl)benzamide] |
| 0.01 to 0.1 µM | COc1cc(C(=O)NC2CCN(C)CC2)ccc1Nc1ncc2c(n1)N(C1CCCC1)[C@H](C)CC(=O)N2C [Compound I-65, 4-((R)-9-cyclopentyl-6,7,8,9-tetrahydro-5,8-dimethyl-6-oxo-5H-pyrimido[4,5-b][1,4]diazepin-2-ylamino)-3-methoxy-N-(1-methylpiperidin-4-yl)benzamide] |
| < 0.01 µM | COc1cc(C(=O)N[C@H]2CCOC2)ccc1Nc1ncc2c(n1)N(C1CCCC1)CC(C)(C)C(=O)N2C [Compound I-172, 4-(9-cyclopentyl-6,7,8,9-tetrahydro-5,7,7-trimethyl-6-oxo-5H-pyrimido[4,5-b][1,4]diazepin-2-ylamino)-N—((S)-tetrahydrofuran-3-yl)-3-methoxybenzamide] |
| < 0.01 µM | CNC(=O)c1ccc(Nc2ncc3c(n2)N(C2CCCC2)CC2(CCC2)C(=O)N3C)c(OC)c1 [Compound I-60, 4-(9′-cyclopentyl-5′-methyl-6′-oxo-5′,6′,8′,9′-tetrahydrospiro[cyclobutane-1,7′-pyrimido[4,5-b][1,4]diazepine]-2′-ylamino)-3-methoxy-N-methylbenzamide] |
| < 0.01 µM | COc1cc(C(=O)NCCC(C)O)ccc1Nc1ncc2c(n1)N(C1CCCC1)CC(C)(C)C(=O)N2C (stereo not drawn) [Compound I-243, 4-(9-cyclopentyl-5,7,7-trimethyl-6-oxo-6,7,8,9-tetrahydro-5H-pyrimido[4,5-b][1,4]diazepin-2-ylamino)-N-(3-hydroxybutyl)-3-methoxybenzamide] |
| < 0.01 µM | COc1cc(C(=O)NC2CCN(C)CC2)ccc1Nc1ncc2c(n1)N(C1CCCC1)C[C@@H](C)C(=O)N2C [Compound I-22, 4-((R)-9-cyclopentyl-6,7,8,9-tetrahydro-5,7-dimethyl-6-oxo-5H-pyrimido[4,5-b][1,4]diazepin-2-ylamino)-3-methoxy-N-(1-methylpiperidin-4-yl)benzamide] |
| < 0.01 µM | COc1cc(C(=O)NCCc2ccccc2)ccc1Nc1ncc2c(n1)N(C1CCCC1)CC(C)(C)C(=O)N2C [Compound I-203, 4-(9-cyclopentyl-5,7,7-trimethyl-6-oxo-6,7,8,9-tetrahydro-5H-pyrimido[4,5-b][1,4]diazepin-2-ylamino)-3-methoxy-N-phenethylbenzamide] |
| < 0.01 µM | COc1cc(C(=O)NC2CCCC2)ccc1Nc1ncc2c(n1)N(C1CCCC1)C[C@@H](C)C(=O)N2C [Compound I-185, (R)—N-cyclopentyl-4-(9-cyclopentyl-5,7-dimethyl-6-oxo-6,7,8,9-tetrahydro-5H-pyrimido[4,5-b][1,4]diazepin-2-ylamino)-3-methoxybenzamide] |
| 0.01 to 0.1 µM | CNC(=O)c1ccc(Nc2ncc3c(n2)N(C(C)C)CC(C)(C)C(=O)N3C)c(OC)c1 [Compound I-35, 4-(6,7,8,9-tetrahydro-9-isopropyl-5,7,7-trimethyl-6-oxo-5H-pyrimido[4,5-b][1,4]diazepin-2-ylamino)-3-methoxy-N-methylbenzamide] |
| < 0.01 µM | COc1cc(C(=O)NC2CCCC2)ccc1Nc1ncc2c(n1)N(C1CCCC1)CC(C)(C)C(=O)N2C [Compound I-129, 4-(9-cyclopentyl-6,7,8,9-tetrahydro-5,7,7-trimethyl-6-oxo-5H-pyrimido[4,5-b][1,4]diazepin-2-ylamino)-N-cyclopentyl-3-methoxybenzamide] |
| < 0.01 µM | COc1cc(C(=O)NCCCOC(C)=O)ccc1Nc1ncc2c(n1)N(C1CCCC1)CC(C)(C)C(=O)N2C [Compound I-273, 3-(4-(9-cyclopentyl-5,7,7-trimethyl-6-oxo-6,7,8,9-tetrahydro-5H-pyrimido[4,5-b][1,4]diazepin-2-ylamino)-3-methoxybenzamido)propyl acetate] |
| < 0.01 µM | CNC(=O)c1ccc(Nc2ncc3c(n2)N(C2CCC2)CC(C)(C)C(=O)N3C)c(OC)c1 [Compound I-167, 4-(9-cyclobutyl-6,7,8,9-tetrahydro-5,7,7-trimethyl-6-oxo-5H-pyrimido[4,5-b][1,4]diazepin-2-ylamino)-3-methoxy-N-methylbenzamide] |
| < 0.01 µM | COc1cc(C(=O)NC2CC(F)(F)C2)ccc1Nc1ncc2c(n1)N(C1CCCC1)CC(C)(C)C(=O)N2C [Compound I-166, 4-(9-cyclopentyl-6,7,8,9-tetrahydro-5,7,7-trimethyl-6-oxo-5H-pyrimido[4,5-b][1,4]diazepin-2-ylamino)-N-(3,3-difluorocyclobutyl)-3-methoxybenzamide] |
| < 0.01 µM | COc1cc(C(=O)Nc2ccncc2C(F)(F)F)ccc1Nc1ncc2c(n1)N(C1CCCC1)CC(C)(C)C(=O)N2C [Compound I-234] |
